For series [1], the system named is Aedes aegypti. Put plainly: Patch test of mosquito repellency (landings on treated gauze). In kind it is in vivo. As to conditions: for Mosquito repellency of chromatography fractions (active / inert): patch test of Test 1, fractions of the hexane portion. The source says:
Aedes aegypti were used in the tests of mosquito repellency in the experiments of the present invention. They were provided from the National Institute of Health in Korea and were selected from indoor breeding insects that were not exposed to insecticides or other drugs. Larvae were reared in 30×35×10 cm cages. […] The pupae were transferred to a paper-cup using a spoide and then the paper-cup was moved to a cage being a structure (35×35×35 cm) made from wire. […] For patch test, 35×35×35 cm screen wire cage were used. Tests were conducted on nulliparous females 7-10 days old. The methanol extract and 4 types of portions prepared in the Example 1 and 100 μl of ethanol were applied to a piece of gauze (50 mm-diameter). After drying in the air for 2 minutes, the gauze was put on a rubber glove with a 50 mm-diameter hole punched in it and it was exposed in a cage (35×35×35 cm containing 60 mosquitoes). Because the gauze on the rubber glove was 5 mm away from the skin, mosquitoes would probe through the gauze in an attempt to feed but could not reach the back of the hand. Repellent activity was measured by the number of mosquitoes landing on the gauze for 5 minutes. An untreated gauze (95% ethanol only) was also exposed to mosquitoes in the same manner and considered as a control. The degree of repellency was expressed in terms of percent repellency calculated according to the following equation. [formula] Also, in order to identify mosquito repelling activity, it was compared with synthetic repellent DEET by recording the number of landings.

The test system of series [2] is Aedes aegypti. Description: Skin test of mosquito repellency (bites on treated skin). It is filed as in vivo. How it is done:
In order to exactly confirm mosquito repellent activity, the compounds containing repellent activity were further examined by a skin test directly against skin. The cage was covered with a 35×35×35 cm mail net structure. Tests were conducted against nulliparous females 7–10 days old. Both compounds, in 100 μl of ethanol, were applied to a rubber glove surface with a 50 mm diameter hole punched on the hand. After drying in the air for 1 minute, skin was exposed for 5 minutes in a cage containing 60 mosquitoes. Repellent activity was measured by the number of mosquitoes biting the skin. The control treated only with 95% ethanol was also exposed to mosquitoes in the same manner. The degree of repellency was expressed in terms of percent repellency calculated according to the following Equation 2. [formula]

For series [3] the following is noted: skin treated with 300 ug/cm^2 DEET, cited from earlier work.
Series [4] has as its system rat. The note with it: epidermal; cited from earlier work.
For series [5], the system named is rat. As to conditions: oral administration; cited from earlier work.
Where [6] appears, read: patch test, dose 0.004 mg/cm^2 (so in the source).

Where “and” joins values, the source holds several entries; their conditions need not be identical. Equal values may be shown once. Read-outs that look alike come from different tables or passages of the source. Some results are limits rather than exact numbers.

Consider `CCN(CC)C(=O)c1cccc(C)c1` [DEET, N,N-diethyl-m-toluamide, reference compound], for which the “Repellency (average ± standard deviation, %)” value in series [1] (setting [6]) is 100a %; in series [1] (patch test, dose 0.005 mg/cm^2) it was 84.6% and 84.6 ± 1.3c %; in series [1] (patch test, dose 0.01 mg/cm^2), 96.4 ± 0.5b %; in series [1] (patch test, dose 0.02 mg/cm^2), 100a %; in series [2] (dose 0.04 mg/cm^2), 98.4 ± 0.5b %; in series [2] (dose 0.1 mg/cm^2), 100a %. Further, the “Repellency (average ± standard deviation, %)” value in series [2] (dose 0.2 mg/cm^2) and in series [2] (dose 0.4 mg/cm^2) was 100a % each time. The “Repellency (%)” value in series [1] (patch test, dose 0.1 mg/cm^2, A. aegypti females, 5 min exposure) is above 80%. Moreover, the skin penetration ratio was 30% in series [3] (after 1 hour) and 36% in series [3] (after 12 hours).
`CCCCCCCC/C=C/CCCCCCCC(=O)O` [E-9-octadecenoic acid]: the “Mosquito repellency of chromatography fractions (active / inert)” value in series [1] is listed as “potent active principles”. For the same molecule, the “Repellency (average ± standard deviation, %)” value in series [1] (setting [6]) was 100a %; in series [1] (patch test, dose 0.005 mg/cm^2), 73.4% and 73.4 ± 2.3c %; in series [1] (patch test, dose 0.02 mg/cm^2), 98.6 ± 0.9a %; in series [2] (dose 0.2 mg/cm^2), 52.3 ± 0.9%; in series [2] (dose 0.4 mg/cm^2), 80.4% and 80.4 ± 0.2%.
Turning to `CC1(C)C(=O)[C@@]2(C)CC[C@@H]1C2` [Fenchone, (+)-fenchone], the “Repellency (average ± standard deviation, %)” value is given as 100a % in series [1] (setting [6]); 82.1 ± 0.7c % in series [1] (patch test, dose 0.005 mg/cm^2); 82.1% in series [1] (patch test, dose 0.005 mg/cm^2, listed as fenchone); 93.9 ± 0.6b % in series [1] (patch test, dose 0.01 mg/cm^2); “potent repellency comparable with that of DEET” in series [1] (patch test, dose 0.01 mg/cm^2, listed as fenchone); 100a % in series [1] (patch test, dose 0.02 mg/cm^2). Further, the “Repellency (average ± standard deviation, %)” value in series [2] (dose 0.04 mg/cm^2) was 76.2 ± 0.2c %; in series [2] (dose 0.1 mg/cm^2) it was 91.7 ± 0.9b %; in series [2] (dose 0.2 mg/cm^2), 100a %; in series [2] (dose 0.4 mg/cm^2) it was 100a %; in series [2] (dose 0.4 mg/cm^2, listed as fenchone), “perfect repellent activity”.
Regarding `CC1CCC(C(C)(C)O)C(O)C1` (stereo not shown) [PMD, p-menthan-3,8-diol], the LD50 is listed as > 2,000 mg/kg in series [4] and 2,408 mg/kg in series [5].
With (+)-fenchone, the “Mosquito repellency of chromatography fractions (active / inert)” value in series [1] is reported as “potent active principles”.
